Reference: patent US3989746A, “Substituted naphthyl anthranilic acids” (Ikeda Mohando Co., Ltd., priority 1972, dated 1976)

Assays:
Ultraviolet erythema = experiment: Ultraviolet erythema; format: in vivo, guinea pigs (male, Hartley type); settings: 10 mg/Kg oral, 1 h before irradiation, read 3 h after irradiation; for inhibition in vivo at 10 mg/kg: Cavia porcellus, light or radiation study, read-out: Anti-Inflammatory Effect Control Ratio, Ultraviolet Erythema
Description: The test was conducted according to a modification of the method of C. […] Groups of guinea pigs (male guinea pigs of the Hartley type having a body weight of 300 to 450 g), each group consisting of 5 to 10 guinea pigs, were employed for the test. Hairs were removed from backs of the guinea pigs by an electric hair-clipper and a depilatory agent. The guinea pigs were caused to abstain from food for 18 to 19 hours, and a test compound was orally administered in an amount of 10 mg/Kg in the form suspended in a 4% gum arabic liquor. In the case of control groups, only a 4% gum arabic liquor was administered. An adhesive plaster according to the Japanese pharmacopoeia, on which three small holes having a diameter of 5 mm were opened, was applied to the hair-removed portion of the back. […] When 3 hours had passed from the irradiation, the degree of the formation of erythema was determined. One point was given to the guinea pig on which a definite round erythema was formed, a point of 0.5 was given to the guinea pig on which formation of erythema was observed but its contour was not definite, and a point of 0 was given to the guinea pig on which no erythema was formed. Total points were calculated in both the test compound-administered group and the control group, and the control ratio was calculated from these total points. [formula]

male mice = experiment: in vivo; settings: 7 days
Description: With respect to the foregoing test compounds, the acute toxicity was examined by employing mice according to the following method.
Groups of male mice of the dd type having a body weight of 18 to 22 g, each, group consisting of 5 mice, were tested to determine the acute toxicity. The test compound was orally administered in a dosage indicated in Table 3a in the form suspended in 5% gum arabic liquor. The determination was conducted 7 days after the administration. Further, the LD50 values were calculated according to the method of Lichfield-Wilcoxon.

inflammatory pain = experiment: Analgesic effect on inflammatory pain (modified Randall and Selitto); format: in vivo, rats (male, Wister type); settings: 100 mg/Kg oral, 1 hour before carragheenin; pain measured 3 hours after injection
Description: Groups of male rats of the Wister type having a body weight of about 150 g were tested, each group consisting of 5 rats. The rats were caused to abstain from food overnight, and 0.05 ml of a 1% carragheenin solution was hypodermically injected into the right hind leg of each rat. […] The test compound was orally administered in a dosage of 100 mg/Kg 1 hour before the injection of carragheenin. [formula]

Carragheenin foot edema = experiment: Carragheenin foot edema; format: in vivo, rats (male, Wister type); settings: 100 mg/Kg oral, 1 h before carragheenin, foot volume 3 h after injection; for inhibition in vivo at 100 mg/kg: Rattus norvegicus, read-out: Anti-Inflammatory Effect Control Ratio, Carragheenin Foot Edema
Description: a. Carragheenin food edema
The test was conducted according to the method of C. […] Groups of rats (male rats of the Wister type having a body weight of 140-170 g), each group consisting of 5 to 11 rats, were caused to abstain from food for 16 hours, and a 4% gum arabic suspension of a test compound was orally administered to the rats in an amount of 100 mg/Kg. of the test compounds. Immediately, rats were allowed to drink 5 ml of purified water. […] After 3 hours had passed from the injection, the volume of the right foot was measured again to determine the increase of the volume of the right foot. In control groups, only a 4% gum arabic liquor free of a test compound was orally administered, and subsequent procedures were conducted similarly to determine the increase of the volume of the right foot. The carragheenin foot edema control ratio was calculated according to the following formula: [formula] wherein C indicates the foot volume increase in the control group and D indicates the foot volume increase in the test compound-administered group.

Adjuvant arthritis = experiment: Adjuvant arthritis; format: in vivo, rats (female, Wister type); settings: 9 mg/Kg per day oral for 25 days, foot volume on 23rd day from adjuvant injection; for inhibition in vivo at 9 mg/kg: Rattus norvegicus, 552 h, read-out: Anti-Inflammatory Effect Control Ratio, Adjuvant Arthritis
Description: With respect to the foregoing compounds, anti-inflammatory effects against carragheenin foot edema, ultraviolet erythema and adjuvant arthritis were tested by using rate according to the following methods to obtain results shown below.
The test was conducted according to a modification of the method of B. B. Newbould (Brit. J. Pharmacol., 21, 127 (1963)). Groups of female rats of the Wister type having a body weight of 180 - 240 g, each group consisting of 4 to 8 rats, were tested. 0.05 ml of an adjuvant (formed by suspending 5 mg of dead tuberculous bacillus, Aoyama B strain, in 1 ml of fluid paraffin according to the Japanese pharmacopoeia) was hypodermically injected in the right foot heel of each rat. A test compound was orally administered in a dosage of 9 mg/Kg per day in the form suspended in a 5% gum arabic liquor continuously for 25 days from one day before the injection of the adjuvant. In the case of the control group, only a 5% gum arabic liquor was continuously administered in the same manner. The volume of the right foot was measured 1 day before the injection of the adjuvant and on the 23rd day from the injection of the adjuvant with respect to each group. Thus, the increase of the foot volume was calculated in either the test compound-administered group or the control group, and the ratio of control of the adjuvant arthritis was calculated according to the following formula: [formula] in which C is the increase of the volume of the right foot in the control group and D indicates the increase of the volume of the right foot in the test compound-administered rat group.

O=C(O)c1ccccc1Nc1cc(F)cc2ccccc12 [Compound 7, N-(3-fluoro-1-naphthyl)anthranilic acid]
inhibition in vivo at 10 mg/kg (Ultraviolet erythema): 44%
Number of Dead Mice/Number of Mice Tested (male mice; 2 g/kg oral): 1 / 5
Number of Dead Mice/Number of Mice Tested (male mice; 3 g/kg oral): 5 / 5
Analgesic Coefficient (inflammatory pain): 1.70
inhibition in vivo at 100 mg/kg (Carragheenin foot edema): 35.4%
inhibition in vivo at 9 mg/kg (Adjuvant arthritis): 36.1%

O=C(O)c1ccccc1Nc1cc(Cl)cc2ccccc12 [Compound 5, N-(3-chloro-1-naphthyl)anthranilic acid]
inhibition in vivo at 10 mg/kg (Ultraviolet erythema): 40%
Number of Dead Mice/Number of Mice Tested (male mice; 1 g/kg oral): 0 / 5
Number of Dead Mice/Number of Mice Tested (male mice; 2 g/kg oral): 0 / 5
Number of Dead Mice/Number of Mice Tested (male mice; 3 g/kg oral): 4 / 5
Number of Dead Mice/Number of Mice Tested (male mice; 4 g/kg oral): 5 / 5
Analgesic Coefficient (inflammatory pain): 1.31
inhibition in vivo at 100 mg/kg (Carragheenin foot edema): 31.4%
inhibition in vivo at 9 mg/kg (Adjuvant arthritis): 41.4%

CCc1ccc(Nc2ccccc2C(=O)O)c2ccccc12 [4 Ethyl-]
Anti-Inflammatory Effect Control Ratio, Ultraviolet Erythema (Ultraviolet erythema): 60.0%
Number of Dead Mice/Number of Mice Tested (male mice; 1 g/kg oral): 0 /10
Number of Dead Mice/Number of Mice Tested (male mice; 2 g/kg oral): 2 /10
Number of Dead Mice/Number of Mice Tested (male mice; 3 g/kg oral): 4 /10
Analgesic Coefficient (inflammatory pain): 1.20
Anti-Inflammatory Effect Control Ratio, Carragheenin Foot Edema (Carragheenin foot edema): 46.2%
Anti-Inflammatory Effect Control Ratio, Adjuvant Arthritis (Adjuvant arthritis): 21.5%

Cc1cccc(Nc2ccccc2C(=O)O)c1C [Compound M, mefenamic acid, reference compound]
inhibition in vivo at 10 mg/kg (Ultraviolet erythema): 38.1%
Number of Dead Mice/Number of Mice Tested (male mice; 1 g/kg oral): 5 / 5
Number of Dead Mice/Number of Mice Tested (male mice; 2 g/kg oral): 5 / 5
Analgesic Coefficient (inflammatory pain): 1.50
inhibition in vivo at 100 mg/kg (Carragheenin foot edema): 50.6%
inhibition in vivo at 9 mg/kg (Adjuvant arthritis): 48.1%

CCCCCCc1ccc2ccccc2c1Nc1ccccc1C(=O)O [2 Hexyl-, N-(2-n-hexyl-naphthyl-1)anthranilic acid]
inhibition in vivo at 10 mg/kg (Ultraviolet erythema): 44%
Number of Dead Mice/Number of Mice Tested (male mice; 1 g/kg oral): 0 /10
Number of Dead Mice/Number of Mice Tested (male mice; 2 g/kg oral): 0 /10
Number of Dead Mice/Number of Mice Tested (male mice; 3 g/kg oral): 0 /10
Analgesic Coefficient (inflammatory pain): 1.28
inhibition in vivo at 100 mg/kg (Carragheenin foot edema): 8.5%

CCCCc1ccc2ccccc2c1Nc1ccccc1C(=O)O [N-(2-butyl-naphthyl-1-anthranilic acid]
inhibition in vivo at 10 mg/kg (Ultraviolet erythema): 50.3%
Number of Dead Mice/Number of Mice Tested (male mice; 1 g/kg oral): 0 /10
Number of Dead Mice/Number of Mice Tested (male mice; 2 g/kg oral): 0 /10
Number of Dead Mice/Number of Mice Tested (male mice; 3 g/kg oral): 0 /10
Analgesic Coefficient (inflammatory pain): 1.38
inhibition in vivo at 100 mg/kg (Carragheenin foot edema): 31%
inhibition in vivo at 9 mg/kg (Adjuvant arthritis): 26.2%

CCCCc1ccc(Nc2ccccc2C(=O)O)c2ccccc12 [4 Butyl-]
Anti-Inflammatory Effect Control Ratio, Ultraviolet Erythema (Ultraviolet erythema): 22.3%
Number of Dead Mice/Number of Mice Tested (male mice; 1 g/kg oral): 0 /10
Number of Dead Mice/Number of Mice Tested (male mice; 2 g/kg oral): 0 /10
Number of Dead Mice/Number of Mice Tested (male mice; 3 g/kg oral): 5 /10
Analgesic Coefficient (inflammatory pain): 1.41
Anti-Inflammatory Effect Control Ratio, Carragheenin Foot Edema (Carragheenin foot edema): 16.8%
Anti-Inflammatory Effect Control Ratio, Adjuvant Arthritis (Adjuvant arthritis): 1.3%

CC(C)Cc1ccc(Nc2ccccc2C(=O)O)c2ccccc12 [4 iso Butyl-, N-(4-isobutyl-naphthyl-1)anthranilic acid]
Anti-Inflammatory Effect Control Ratio, Ultraviolet Erythema (Ultraviolet erythema): 43.8%
Number of Dead Mice/Number of Mice Tested (male mice; 1 g/kg oral): 0 /10
Number of Dead Mice/Number of Mice Tested (male mice; 2 g/kg oral): 0 /10
Number of Dead Mice/Number of Mice Tested (male mice; 3 g/kg oral): 2 /10
Analgesic Coefficient (inflammatory pain): 1.37
Anti-Inflammatory Effect Control Ratio, Carragheenin Foot Edema (Carragheenin foot edema): 41.9%
Anti-Inflammatory Effect Control Ratio, Adjuvant Arthritis (Adjuvant arthritis): 31.0%

O=C(O)c1ccccc1Nc1c(F)ccc2ccccc12 [Compound 4, N-(2-fluoro-1-naphthyl)anthranilic acid]
inhibition in vivo at 10 mg/kg (Ultraviolet erythema): 48.7%
Number of Dead Mice/Number of Mice Tested (male mice; 1 g/kg oral): 0 / 5
Number of Dead Mice/Number of Mice Tested (male mice; 2 g/kg oral): 0 / 5
Number of Dead Mice/Number of Mice Tested (male mice; 3 g/kg oral): 5 / 5
Number of Dead Mice/Number of Mice Tested (male mice; 4 g/kg oral): 5 / 5
Analgesic Coefficient (inflammatory pain): 1.60
inhibition in vivo at 100 mg/kg (Carragheenin foot edema): 27.6%
inhibition in vivo at 9 mg/kg (Adjuvant arthritis): 50%

O=C(O)c1ccccc1Nc1c(Cl)cc(Br)c2ccccc12 [Compound 8, N-(2-chloro-4-bromo-1-naphthyl)anthranilic acid]
inhibition in vivo at 10 mg/kg (Ultraviolet erythema): 77.3%
Number of Dead Mice/Number of Mice Tested (male mice; 1 g/kg oral): 0 / 5
Number of Dead Mice/Number of Mice Tested (male mice; 2 g/kg oral): 0 / 5
Number of Dead Mice/Number of Mice Tested (male mice; 3 g/kg oral): 0 / 5
Number of Dead Mice/Number of Mice Tested (male mice; 4 g/kg oral): 4 / 5
Analgesic Coefficient (inflammatory pain): 1.72
inhibition in vivo at 100 mg/kg (Carragheenin foot edema): 27.6%
inhibition in vivo at 9 mg/kg (Adjuvant arthritis): 31.2%

O=C(O)c1ccccc1Nc1c(Cl)ccc2ccccc12 [Compound 3, N-(2-chloro-1-naphthyl)anthranilic acid]
inhibition in vivo at 10 mg/kg (Ultraviolet erythema): 66.7%
Number of Dead Mice/Number of Mice Tested (male mice; 1 g/kg oral): 0 / 5
Number of Dead Mice/Number of Mice Tested (male mice; 2 g/kg oral): 2 / 5
Number of Dead Mice/Number of Mice Tested (male mice; 3 g/kg oral): 4 / 5
Number of Dead Mice/Number of Mice Tested (male mice; 4 g/kg oral): 5 / 5
Analgesic Coefficient (inflammatory pain): 1.62
inhibition in vivo at 100 mg/kg (Carragheenin foot edema): 46.6%
inhibition in vivo at 9 mg/kg (Adjuvant arthritis): 36.9%

Cc1cc(Nc2ccccc2C(=O)O)c2ccccc2c1C [Compound 6, N-(3,4-dimethyl-1-naphthyl)anthranilic acid]
inhibition in vivo at 10 mg/kg (Ultraviolet erythema): 17.1%
Number of Dead Mice/Number of Mice Tested (male mice; 1 g/kg oral): 0 / 5
Number of Dead Mice/Number of Mice Tested (male mice; 2 g/kg oral): 2 / 5
Number of Dead Mice/Number of Mice Tested (male mice; 3 g/kg oral): 5 / 5
Number of Dead Mice/Number of Mice Tested (male mice; 4 g/kg oral): 5 / 5
Analgesic Coefficient (inflammatory pain): 1.28
inhibition in vivo at 100 mg/kg (Carragheenin foot edema): 47.1%
inhibition in vivo at 9 mg/kg (Adjuvant arthritis): 17.2%

Cc1cc(Nc2ccccc2C(=O)O)c2ccccc2c1 [Compound 9, N-(3-methyl-1-naphthyl)anthranilic acid]
inhibition in vivo at 10 mg/kg (Ultraviolet erythema): 46.3%
Number of Dead Mice/Number of Mice Tested (male mice; 1 g/kg oral): 0 / 5
Number of Dead Mice/Number of Mice Tested (male mice; 2 g/kg oral): 3 / 5
Number of Dead Mice/Number of Mice Tested (male mice; 3 g/kg oral): 5 / 5
inhibition in vivo at 100 mg/kg (Carragheenin foot edema): 44.3%
